US20130101615A1, “METHODS FOR PREVENTING OR TREATING A DISEASE OR CONDITION ASSOCIATED WITH MYCOBACTERIUM AVIUM SUBSPECIES PARATUBERCULOSIS” (priority 2005, published 2013)
Entries after “also recorded” stand apart in the source; their conditions may differ. Where two headings read alike, the source gives them in different places.

B1: AhpD: Alkyl hydroperoxide reductase D, immunogenic MAP protein, recombinant antigen (protein, UniProt A0QGI9 1-178, looked up)
Alkyl hydroperoxide reductase …: MSVENLKEALPEYAKDLKLNLGSITRTTELNEEQLWGTLLASAAATRNTQVLTEIGAEAADTLSAEAYHAALGAASVMAMNNVFYRGRGFLDGKYDDLRAGLRMNIIGNPGVEKANFELWCFAVSAINGCPDCVASHEHTLREAGVSRETIQEALKAAAIISGVAQAIVTSQTLATAG

Key:
M. avium ATCC 25291 = type: cell-based, M. avium subspecies avium; details: for % ΔcGI: M. avium 25291, vs 3.2% DMSO control
M. avium 101 = type: cell-based, M. avium subspecies avium; details: for % ΔcGI: vs 3.2% DMSO control
[1] = test system: MAP UCF 4, isolated from human with Crohn's disease; assay: Radiometric BACTEC growth inhibition, MAP UCF4; type: cell-based, Mycobacterium avium subspecies paratuberculosis; details: for % ΔcGI: Human MAP UCF4, vs 3.2% DMSO control
MAP ATCC 19698 (bovine) = type: cell-based, Mycobacterium avium subspecies paratuberculosis; details: for % ΔcGI: Bovine MAP 19698, vs 3.2% DMSO control
MAP = assay: Growth inhibition of MAP (strain not stated or MAP strains in general); details: MAP strains in general
[2] = test system: MAP 303 (ruminant with Johne's disease); assay: Radiometric BACTEC growth inhibition, MAP 303; type: cell-based, Mycobacterium avium subspecies paratuberculosis; details: Bovine MAP 303, vs 3.2% DMSO control
[3] = test system: MAP Dominic (ATCC 43545), isolated from human with Crohn's disease; type: cell-based, Mycobacterium avium subspecies paratuberculosis; details: vs 3.2% DMSO control
MAP and M. avium strains = assay: Radiometric BACTEC growth inhibition, all strains tested; type: cell-based, Mycobacterium avium; details: any strain tested (MAP and M. avium)
MAP and M. tuberculosis = type: in vivo, Mice; details: 15 μg i.p. in combination with Ag85B-ESAT-6 fusion protein, CFA then IFA; challenge at week 8
[4] = 1 μg/ml, Human MAP Dominic Expt. 1
[5] = 1 μg/ml, Human MAP Dominic Expt. 2
[6] = 4 μg/ml, Human MAP Dominic Expt. 1
[7] = 4 μg/ml, Human MAP Dominic Expt. 2
[8] = 16 μg/ml, Human MAP Dominic Expt. 1
[9] = 16 μg/ml, Human MAP Dominic Expt. 2
[10] = 64 μg/ml, Human MAP Dominic Expt. 1
[11] = 64 μg/ml, Human MAP Dominic Expt. 2

Molecule	% ΔcGI (M. avium ATCC 25291; 1 μg/ml) [%]	% ΔcGI (M. avium ATCC 25291; 4 μg/ml) [%]	% ΔcGI (M. avium ATCC 25291; 16 μg/ml) [%]	% ΔcGI (M. avium ATCC 25291; 64 μg/ml) [%]	effect on growth, in words (M. avium 101)	% ΔcGI (M. avium 101; 1 μg/ml) [%]	% ΔcGI (M. avium 101; 4 μg/ml) [%]	% ΔcGI (M. avium 101; 16 μg/ml) [%]	% ΔcGI (M. avium 101; 64 μg/ml) [%]	% ΔcGI ([1]; 1 μg/ml) [%]	% ΔcGI ([1]; 4 μg/ml) [%]	% ΔcGI ([1]; 16 μg/ml) [%]	% ΔcGI ([1]; 64 μg/ml) [%]	% ΔcGI (MAP ATCC 19698 (bovine); 1 μg/ml) [%]	% ΔcGI (MAP ATCC 19698 (bovine); 4 μg/ml) [%]	% ΔcGI (MAP ATCC 19698 (bovine); 16 μg/ml) [%]	% ΔcGI (MAP ATCC 19698 (bovine); 64 μg/ml) [%]	% ΔcGI ([2]; 1 μg/ml) [%]	% ΔcGI ([2]; 4 μg/ml) [%]	% ΔcGI ([2]; 16 μg/ml) [%]	further results
C[C@@H]1C[C@@H]([C@H](O)CC2CC(=O)NC(=O)C2)C(=O)[C@@H](C)C1 [Cycloheximide, cycloheximide]	0	−8	−7	−57	no affect	6	7	1	5	1	−7	−4	−12	−2	−7	−12	−9	3	4	−5	%−ΔcGI (percent decrease in cumulative GI) (M. avium ATCC 25291; 64 μg/ml, M. avium ATCC 25291): 57%; effect on growth of MAP, in words (MAP): no dose-dependent inhibition on any MAP strain; % ΔcGI ([2]; 64 μg/ml): −4%; % ΔcGI [3, 4]: 15%; % ΔcGI [3, 5]: 9%; % ΔcGI [3, 6]: −4%; % ΔcGI [3, 7]: 0%; % ΔcGI [3, 8]: −8%; % ΔcGI [3, 9]: −4%; % ΔcGI [3, 10]: −1%; % ΔcGI [3, 11]: −7%
CC[C@@]1([C@@H]2O[C@@H]([C@H]3O[C@@](O)(CO)[C@H](C)C[C@@H]3C)C[C@@H]2C)CC[C@H]([C@]2(C)CC[C@]3(C[C@H](O)[C@@H](C)[C@@H]([C@@H](C)[C@@H](OC)[C@H](C)C(=O)O)O3)O2)O1 [Monensin, monensin]	−25	−54	−69	−87	no inhibition	7	3	4	8	−73	−93	−96	−97	−14	−45	−62	−65	−21	−73	−94	effect on growth of MAP, in words (MAP): dose-dependent inhibition against all MAP strains; % ΔcGI ([2]; 64 μg/ml): −97%; % ΔcGI [3, 4]: −52%; % ΔcGI [3, 5]: −46%; % ΔcGI [3, 6]: −77%; % ΔcGI [3, 7]: −71%; % ΔcGI [3, 8]: −93%; % ΔcGI [3, 9]: −87%; % ΔcGI [3, 10]: −94%; % ΔcGI [3, 11]: −92%
O=C1NC(=O)c2ccccc21 [Phthalimide, phthalimide]	2	4	1	12	no dose-dependent inhibition	−3	4	2	−2	4	−2	1	3	−2	−10	1	0	−2	3	−13	effect on growth, in words (M. avium ATCC 25291; M. avium ATCC 25291): no dose-dependent inhibition; % ΔcGI ([2]; 64 μg/ml): 6%; % ΔcGI [3, 4]: −3%; % ΔcGI [3, 5]: −1%; % ΔcGI [3, 6]: 7%; % ΔcGI [3, 7]: 0%; % ΔcGI [3, 8]: 0%; % ΔcGI [3, 9]: 1%; % ΔcGI [3, 10]: 2%; % ΔcGI [3, 11]: 4%; dose-dependent inhibition, in words (MAP and M. avium strains): no dose-dependent effect on any strain tested; dose-dependent inhibition, in words (MAP and M. avium strains; listed as phthalimide): did not exhibit a dose-dependent inhibition of any strain
C=CC[C@@H]1/C=C(\C)C[C@H](C)C[C@H](OC)[C@H]2O[C@@](O)(C(=O)C(=O)N3CCCC[C@H]3C(=O)O[C@H](/C(C)=C/[C@@H]3CC[C@@H](O)[C@H](OC)C3)[C@H](C)[C@@H](O)CC1=O)[C@H](C)C[C@@H]2OC [Tacrolimus, tacrolimus (FK506)]	−23	−3	11	53	the most inhibition on M. avium 101 of all six strains studied	−34	−43	−40	−52	6	−19	−18	−43	8	−3	−5	−26	5	3	−5	effect on growth, in words (M. avium ATCC 25291; M. avium ATCC 25291): no inhibition; also recorded: enhanced growth; %−ΔcGI (percent decrease in cumulative GI) ([1]; 64 μg/ml, MAP UCF 4): 43%; %−ΔcGI (percent decrease in cumulative GI) (MAP ATCC 19698 (bovine); 64 μg/ml, MAP ATCC 19698): 26%; effect on growth of MAP, in words (MAP): the least inhibition of the three “immunosuppressants” studied; % ΔcGI ([2]; 64 μg/ml): −27%; % ΔcGI [3, 4]: 28%; % ΔcGI [3, 5]: 5%; % ΔcGI [3, 6]: 9%; % ΔcGI [3, 7]: 9%; % ΔcGI [3, 8]: 21%; % ΔcGI [3, 9]: −10%; % ΔcGI [3, 10]: 0%; % ΔcGI [3, 11]: −21%
B1																					protection against infection after immunization (MAP and M. tuberculosis): elicits a response capable of protecting against MAP and M. tuberculosis infection
